Reference: patent US10617769B2, “Bacterium-contained hydrogel and method of making the same” (TCI Co., Ltd., priority 2016, dated 2020)
Converted amounts (≈) assume the structure as drawn.

Legend:
USA300 [1] = experiment: Minimum bactericidal concentration (MBC) assay, anti-USA300 activity of SCFAs; format: cell-based, Staphylococcus aureus; details: USA300 10^6 CFU/mL, overnight incubation, tested 0.02 mM to 100 mM; for MBC: Staphylococcus aureus
Protocol: Experimental method: USA 300 (10^6 CFU/m L) were respectively incubated with different concentrations of butyric acid or acetic acid on 96-well microtiter plates overnight; the testing concentrations of acetic acid and butyric acid were from 0.02 mM to 100 mM, each well was respectively added 100 microliters of acetic acid or butyric acid with different concentrations. In the control groups, only PBS was added to the wells. After incubation, the USA300 was diluted 1:10^0 to 1:10^5 with PBS, 5 μl of the dilution was spread to the agar plate; after overnight incubation, colonies (CFU) on the algal plate were counted. MBC is defined as the degree of sterilization at 99.9% (greater than […] colony/mL).
Referring to FIG. 4A through FIG. 4D. FIG. 4A and FIG. 4C show the images of bacterial growth on culture plates. […] UD means undetectable.

S. epidermidis = experiment: Fermentation of PEG-monosaccharide polymers in solid agar medium with phenol red; format: cell-based, Staphylococcus epidermidis; details: compound (+), S. epidermidis added to solid agar medium
Protocol: (§1) The experimental method is described as follows: compound A and compound B were respectively added to the solid agar media, and S. epidermidis or P. acnes were added to the media, then the bacteria were incubated, and then the color of phenol red in the media were recorded.

P. acnes = experiment: as above; format: cell-based, Propionibacterium acnes; details: compound (+), P. acnes added to solid agar medium
Protocol: as §1

USA300 [2] = details: in vitro and in vivo; stated as known; cited from earlier work

Structure (SMILES) | MBC (USA300 [1]) [mM] | Concentration for complete inhibition (USA300 [1]) [mM] | Color of phenol red in the medium (S. epidermidis) | Color of phenol red in the medium (P. acnes) | Growth of USA300 (USA300 [2])
CCCC(=O)O [butyric acid] | 10 (≈ 881 µg/mL) | 50 | – | – | –
CC(=O)O [acetic acid] | 10 (≈ 601 µg/mL) | 50 | – | – | –
C#CCOCCOCCOCCOCCOC1OC(CO)C(O)C(O)C1O [Compound A, propargyl-PEG5-beta-D-glucose] | – | – | Yellow | Red | –
CCC(=O)O [propionic acid] | – | – | – | – | suppress the growth of USA300
C#CCOCCOCCOCCOCCOC1OC(COC(C)=O)C(OC(C)=O)C(OC(C)=O)C1OC(C)=O [Compound B, PEG5-tetra-Ac-beta-D-glucose] | – | – | Yellow | Red | –
